According to US9944624B2, “Substituted amino triazoles useful as human chitinase inhibitors” (OncoArendi Therapeutics S.A., priority 2015, dated 2018):

What was measured:
recombinant human AMCase = recombinant human AMCase (Homo sapiens (Human), UniProt Q9BZP6); assay: Human AMCase activity assay (fluorescent 4MU substrate); assay type: biochemical; settings: citrate buffer pH 5.2, 37° C., 60 minutes; substrate 4-methylumbelliferyl B-D-N,N′-diacetylchitobioside hydrate; read-out: Activity on hAMCase, IC50
recombinant human CHIT1 = recombinant human CHIT1 (Homo sapiens (Human), UniProt Q13231); assay: Human CHIT1 activity assay (fluorescent 4MU substrate); assay type: biochemical; settings: citrate buffer pH 5.2, 37° C., 60 minutes; substrate 4-methylumbelliferyl β-D-N,N′,N″-triacetylchitotriose; read-out: Activity on hCHIT1, IC50
Sequence of recombinant human CHIT1 (Q13231 22-466): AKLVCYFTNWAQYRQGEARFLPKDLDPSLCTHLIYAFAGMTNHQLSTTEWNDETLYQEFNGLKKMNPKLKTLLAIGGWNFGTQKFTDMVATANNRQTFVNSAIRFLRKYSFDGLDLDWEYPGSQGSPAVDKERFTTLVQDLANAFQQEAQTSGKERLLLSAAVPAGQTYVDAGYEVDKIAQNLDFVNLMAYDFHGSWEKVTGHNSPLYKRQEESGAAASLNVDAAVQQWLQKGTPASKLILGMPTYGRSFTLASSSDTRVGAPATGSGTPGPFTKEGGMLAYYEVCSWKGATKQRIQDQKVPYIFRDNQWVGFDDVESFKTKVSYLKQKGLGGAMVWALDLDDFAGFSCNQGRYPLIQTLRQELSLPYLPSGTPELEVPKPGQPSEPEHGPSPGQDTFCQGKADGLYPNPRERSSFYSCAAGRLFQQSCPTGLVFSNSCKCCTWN

Sequence of recombinant human AMCase (Q9BZP6 22-476): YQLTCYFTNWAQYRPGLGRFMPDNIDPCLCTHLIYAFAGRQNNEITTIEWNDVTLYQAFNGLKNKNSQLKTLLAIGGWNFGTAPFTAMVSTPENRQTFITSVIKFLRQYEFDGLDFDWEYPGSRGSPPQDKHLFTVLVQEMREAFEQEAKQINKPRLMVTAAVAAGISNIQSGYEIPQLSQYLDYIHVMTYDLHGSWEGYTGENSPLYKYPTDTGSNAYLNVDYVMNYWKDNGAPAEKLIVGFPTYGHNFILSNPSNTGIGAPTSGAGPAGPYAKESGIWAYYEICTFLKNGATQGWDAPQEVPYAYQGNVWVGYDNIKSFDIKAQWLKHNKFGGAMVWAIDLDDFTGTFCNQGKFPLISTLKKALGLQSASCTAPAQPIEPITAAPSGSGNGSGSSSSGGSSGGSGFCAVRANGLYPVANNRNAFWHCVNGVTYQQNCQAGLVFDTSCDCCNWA

| SMILES | IC50 (recombinant human AMCase) | IC50 (recombinant human CHIT1) |
| --- | --- | --- |
| CCOC[C@H]1CN(C2CCN(c3nnc(N)[nH]3)CC2)[C@@H](Cc2ccc(Cl)cc2)CO1 [Example 11, 5-(4-((2R,5S)-5-(4-chlorobenzyl)-2-(ethoxymethyl)morpholino)piperidin-1-yl)-4H-1,2,4-triazol-3-amine] | < 0.1 µM |  |
| CN1C[C@H](Cc2ccc(Cl)cc2)N(C2CCN(c3nnc(N)[nH]3)CC2)Cc2cc(Cl)ccc21 [Example 58, (S)-5-(4-(7-chloro-3-(4-chlorobenzyl)-1-methyl-2,3-dihydro-1H-benzo[e][1,4]diazepin-4(5H)-yl)piperidin-1-yl)-4H-1,2,4-triazol-3-amine] | < 0.1 µM | 0.1 to 1 µM |
| CN1C[C@H](Cc2ccc(Cl)cc2)N(C2CCN(c3nnc(N)[nH]3)CC2)C[C@@H]1Cc1ccc(Cl)cc1 [Example 31, 5-(4-((2S,5S)-2,5-bis(4-chlorobenzyl)-4-methylpiperazin-1-yl)piperidin-1-yl)-4H-1,2,4-triazol-3-amine] | < 0.1 µM | 1 to 10 µM |
| CO[C@H]1C[C@H](Cc2ccc(Cl)cc2)N(C2CCN(c3nnc(N)[nH]3)CC2)C1 [Example 46, 5-(4-((2S,4S)-2-(4-chlorobenzyl)-4-methoxypyrrolidin-1-yl)piperidin-1-yl)-4H-1,2,4-triazol-3-amine] |  | < 0.1 µM |
| C=C1COC[C@H](Cc2ccc(Cl)cc2)N(C2CCN(c3nnc(N)[nH]3)CC2)C1 [Example 55, (S)-5-(4-(3-(4-chlorobenzyl)-6-methylene-1,4-oxazepan-4-yl)piperidin-1-yl)-4H-1,2,4-triazol-3-amine] | < 0.1 µM | 0.1 to 1 µM |
| CC1(C(=O)O)CC[C@H](Cc2ccc(Cl)cc2)N(C2CCN(c3nnc(N)[nH]3)CC2)C1 (stereo partly drawn) [Example 18, (6R)-1′-(5-amino-4H-1,2,4-triazol-3-yl)-6-(4-chlorobenzyl)-3-methyl-[1,4′-bipiperidine]-3-carboxylic acid] | < 0.1 µM |  |
| CC(C)CN1CCN(C2CCN(c3nnc(N)[nH]3)CC2)[C@@H](Cc2ccc(Cl)cc2)C1 [Example 29, (S)-5-(4-(2-(4-chlorobenzyl)-4-isobutylpiperazin-1-yl)piperidin-1-yl)-4H-1,2,4-triazol-3-amine] |  | 10 to 100 µM |
| C[C@H]1CN(C2CCN(c3nnc(N)[nH]3)CC2)[C@@H](Cc2ccc(Cl)cc2)CN1CC(=O)O [Example 41, 2-((2S,5S)-4-(1-(5-amino-4H-1,2,4-triazol-3-yl)piperidin-4-yl)-5-(4-chlorobenzyl)-2-methylpiperazin-1-yl)acetic acid] | < 0.1 µM |  |
| Nc1nnc(N2CCC(N3CC(C(=O)O)CC[C@@H]3Cc3ccc(Cl)cc3)CC2)[nH]1 (stereo partly drawn) [Example 17, (6R)-1′-(5-amino-4H-1,2,4-triazol-3-yl)-6-(4-chlorobenzyl)-[1,4′-bipiperidine]-3-carboxylic acid] | < 0.1 µM |  |
| CN1C[C@H](Cc2ccc(Cl)cc2)N(C2CCN(c3nnc(N)[nH]3)CC2)C[C@@H]1CC1CCCCC1 [Example 32, 5-(4-((2S,5S)-2-(4-chlorobenzyl)-5-(cyclohexylmethyl)-4-methylpiperazin-1-yl)piperidin-1-yl)-4H-1,2,4-triazol-3-amine] | < 0.1 µM | 1 to 10 µM |
| COC(C)(C)[C@H]1CN(C2CCN(c3nnc(N)[nH]3)CC2)[C@@H](Cc2ccc(Cl)cc2)CO1 [Example 14, 5-(4-((2R,5S)-5-(4-chlorobenzyl)-2-(2-methoxypropan-2-yl)morpholino)piperidin-1-yl)-4H-1,2,4-triazol-3-amine] | < 0.1 µM |  |
| Nc1nnc(N2CCC(N3CCCC[C@@H]3Cc3ccc(Cl)cc3)CC2)[nH]1 [Example 15, (R)-5-(2-(4-chlorobenzyl)-[1,4′-bipiperidin]-1′-yl)-4H-1,2,4-triazol-3-amine] | < 0.1 µM |  |
| Nc1nnc(N2CCC(N3Cc4cc(Cl)ccc4OC[C@@H]3Cc3ccc(Cl)cc3)CC2)[nH]1 [Example 61, (S)-5-(4-(7-chloro-3-(4-chlorobenzyl)-2,3-dihydrobenzo[f][1,4]oxazepin-4(5H)-yl)piperidin-1-yl)-4H-1,2,4-triazol-3-amine] | < 0.1 µM | 1 to 10 µM |
| CN1C[C@H](Cc2ccc(Cl)cc2)N(C2CCN(c3nnc(N)[nH]3)CC2)Cc2ccccc21 [Example 57, (S)-5-(4-(3-(4-chlorobenzyl)-1-methyl-2,3-dihydro-1H-benzo[e][1,4]diazepin-4(5H)-yl)piperidin-1-yl)-4H-1,2,4-triazol-3-amine] | < 0.1 µM | 0.1 to 1 µM |
| Nc1nnc(N2CCC(N3Cc4cc(Cl)cc(Cl)c4OC[C@@H]3Cc3ccc(Cl)cc3)CC2)[nH]1 [Example 62, (S)-5-(4-(7,9-dichloro-3-(4-chlorobenzyl)-2,3-dihydrobenzo[f][1,4]oxazepin-4(5H)-yl)piperidin-1-yl)-4H-1,2,4-triazol-3-amine] | < 0.1 µM | 10 to 100 µM |
| CC1(O)C[C@H](Cc2ccc(Cl)cc2)N(C2CCN(c3nnc(N)[nH]3)CC2)C1 (stereo partly drawn) [Example 48, (5S)-1-(1-(5-amino-4H-1,2,4-triazol-3-yl)piperidin-4-yl)-5-(4-chlorobenzyl)-3-methylpyrrolidin-3-ol] | < 0.1 µM | 0.1 to 1 µM |

| SMILES | IC50 (recombinant human AMCase) | IC50 (recombinant human CHIT1) |
| --- | --- | --- |
| Nc1nnc(N2CCC(N3CCOC[C@@H]3Cc3ccc(Cl)cc3)CC2)[nH]1 [Example 1, (S)-5-(4-(3-(4-chlorobenzyl)morpholino)piperidin-1-yl)-4H-1,2,4-triazol-3-amine] | < 0.1 µM |  |
| Nc1nnc(N2CCC(N3Cc4ccccc4OC[C@@H]3Cc3ccc(Cl)cc3)CC2)[nH]1 [Example 59, (S)-5-(4-(3-(4-chlorobenzyl)-2,3-dihydrobenzo[f][1,4]oxazepin-4(5H)-yl)piperidin-1-yl)-4H-1,2,4-triazol-3-amine] | < 0.1 µM | 0.1 to 1 µM |
| Nc1nnc(N2CCC(N3C[C@@H]4CCCN4C[C@@H]3Cc3ccc(Cl)cc3)CC2)[nH]1 [Example 49, 5-(4-((3S,8aS)-3-(4-chlorobenzyl)hexahydropyrrolo[1,2-a]pyrazin-2(1H)-yl)piperidin-1-yl)-4H-1,2,4-triazol-3-amine] | < 0.1 µM |  |
| CO[C@@H]1C[C@H](Cc2ccc(Cl)cc2)N(C2CCN(c3n[nH]c(N)n3)CC2)C1 [Example 51, 3-(4-((2S,4R)-2-(4-chlorobenzyl)-4-methoxypyrrolidin-1-yl)piperidin-1-yl)-1H-1,2,4-triazol-5-amine] |  | < 0.1 µM |
| C[C@H]1CN(C2CCN(c3nnc(N)[nH]3)CC2)[C@@H](Cc2ccc(Cl)cc2)CN1C [Example 27, 5-(4-((2S,5S)-2-(4-chlorobenzyl)-4,5-dimethylpiperazin-1-yl)piperidin-1-yl)-4H-1,2,4-triazol-3-amine] |  | 1 to 10 µM |
| Nc1nnc(N2CCC(N3CCOCC3Cc3ccc(Cl)cc3)CC2)[nH]1 (centres unmarked) [Example 2, 5-(4-(3-(4-chlorobenzyl)morpholino)piperidin-1-yl)-4H-1,2,4-triazol-3-amine] |  | 0.1 to 1 µM |
| Nc1nnc(N2CCC(N3C[C@@H](F)[C@@H]3Cc3ccc(Cl)cc3)CC2)[nH]1 [Example 23, 5-(4-((2S,3R)-2-(4-chlorobenzyl)-3-fluoroazetidin-1-yl)piperidin-1-yl)-4H-1,2,4-triazol-3-amine] |  | 10 to 100 µM |
| Nc1nnc(N2CCC(N3Cc4cc(F)ccc4OC[C@@H]3Cc3ccc(Cl)cc3)CC2)[nH]1 [Example 60, (S)-5-(4-(3-(4-chlorobenzyl)-7-fluoro-2,3-dihydrobenzo[f][1,4]oxazepin-4(5H)-yl)piperidin-1-yl)-4H-1,2,4-triazol-3-amine] | < 0.1 µM | 0.1 to 1 µM |
| Nc1nnc(N2CCC(N3Cc4ccncc4OC[C@@H]3Cc3ccc(Cl)cc3)CC2)[nH]1 [Example 63, (S)-5-(4-(3-(4-chlorobenzyl)-2,3-dihydropyrido[4,3-f][1,4]oxazepin-4(5H)-yl)piperidin-1-yl)-4H-1,2,4-triazol-3-amine] | < 0.1 µM | 1 to 10 µM |
| COC(=O)CN1C[C@H](Cc2ccc(Cl)cc2)N(C2CCN(c3nnc(N)[nH]3)CC2)C[C@@H]1C [Example 40, methyl 2-((2S,5S)-4-(1-(5-amino-4H-1,2,4-triazol-3-yl)piperidin-4-yl)-5-(4-chlorobenzyl)-2-methylpiperazin-1-yl)acetate] | < 0.1 µM |  |
| CC(C)C[C@H]1CN(C2CCN(c3nnc(N)[nH]3)CC2)[C@@H](Cc2ccc(Cl)cc2)CN1C [Example 33, 5-(4-((2S,5S)-2-(4-chlorobenzyl)-5-isobutyl-4-methylpiperazin-1-yl)piperidin-1-yl)-4H-1,2,4-triazol-3-amine] | < 0.1 µM | 1 to 10 µM |
| Nc1nnc(N2CCC(N3CCCCC3C(O)c3ccc(Cl)cc3)CC2)[nH]1 (centres unmarked) [Example 21, (1′-(5-amino-4H-1,2,4-triazol-3-yl)-[1,4′-bipiperidin]-2-yl)(4-chlorophenyl)methanol] |  | 10 to 100 µM |
| Nc1nnc(N2CCC(N3CCOC[C@@H]3Cc3ccc(Br)cc3)CC2)[nH]1 [Example 3, (S)-5-(4-(3-(4-bromobenzyl)morpholino)piperidin-1-yl)-4H-1,2,4-triazol-3-amine] | < 0.1 µM |  |
| CO[C@H]1CN(C2CCN(c3nnc(N)[nH]3)CC2)[C@H]1Cc1ccc(Cl)cc1 [Example 22, 5-(4-((2S,3S)-2-(4-chlorobenzyl)-3-methoxyazetidin-1-yl)piperidin-1-yl)-4H-1,2,4-triazol-3-amine] |  | 0.1 to 1 µM |
| CCOC(=O)C1CC[C@H](Cc2ccc(Cl)cc2)N(C2CCN(c3nnc(N)[nH]3)CC2)C1 (stereo partly drawn) [Example 16, ethyl (6R)-1′-(5-amino-4H-1,2,4-triazol-3-yl)-6-(4-chlorobenzyl)-[1,4′-bipiperidine]-3-carboxylate] | < 0.1 µM |  |
| Nc1nnc(N2CCC(N3CCNC[C@@H]3Cc3ccc(Cl)cc3)CC2)[nH]1 [Example 26, (S)-5-(4-(2-(4-chlorobenzyl)piperazin-1-yl)piperidin-1-yl)-4H-1,2,4-triazol-3-amine] |  | 1 to 10 µM |
